pEC50: −log10 of the molar value.
Target: T1, IDO1 (Homo sapiens, UniProt P14902)
T1 construct: HeLa cells were treated with a test compound in the presence of IFNγ, which induces IDO1 expression; host or cells: H1-HeLa cells, IDO1 induced with IFNγ
Test: Cell-based (HeLa) assay for measurement of IDO1 inhibition (kynurenine levels in supernatant after IFNγ induction)
Details: HeLa cells, IFNγ-induced IDO1, kynurenine in supernatant after 48 hour incubation; geometric mean of a minimum of four determinations
Outline: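 IDO1 activity is read as kynurenine released into the medium, detected with Ehrlich's reagent (p-dimethylaminobenzaldehyde) at 480 nm after TCA treatment. HeLa cells were exposed 48 h to compounds in 0.5% DMSO alongside IFNγ induction. Values normalized to no-IFNγ and IFNγ controls; four-parameter EC50 given as geometric mean of ≥4 determinations.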

T1 sequence (P14902 whole entry): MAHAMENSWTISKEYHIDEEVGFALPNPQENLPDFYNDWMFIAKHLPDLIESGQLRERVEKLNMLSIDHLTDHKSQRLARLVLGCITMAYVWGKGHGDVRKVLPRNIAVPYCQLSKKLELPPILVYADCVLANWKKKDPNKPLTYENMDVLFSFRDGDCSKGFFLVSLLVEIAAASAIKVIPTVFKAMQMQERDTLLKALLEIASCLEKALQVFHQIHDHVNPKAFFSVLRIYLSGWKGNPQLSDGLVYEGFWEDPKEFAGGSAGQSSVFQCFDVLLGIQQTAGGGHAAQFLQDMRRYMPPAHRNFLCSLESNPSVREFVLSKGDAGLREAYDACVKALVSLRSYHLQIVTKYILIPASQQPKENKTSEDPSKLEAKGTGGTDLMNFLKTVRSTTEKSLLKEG

| Compound | pEC50 |
| --- | --- |
| O/N=C(\Nc1ccc(F)c(Cl)c1)c1ccnc2nc(CNCCCN3CCOCC3)[nH]c12 [Example 131, N-(3-Chloro-4-fluorophenyl)-N′-hydroxy-2-(((3-morpholinopropyl)amino)methyl)-1H-imidazo[4,5-b]pyridine-7-carboximidamide] | 5.52 |
| CC(C)NCc1nc2c(F)c(F)cc(/C(=N/O)Nc3cccc(Cl)c3)c2[nH]1 [Example 27, N-(3-Chlorophenyl)-4,5-difluoro-N′-hydroxy-2-((isopropylamino)methyl)-1H-benzo[d]imidazole-7-carboximidamide] | 6.08 |
| CN(CCc1nc2nccc(/C(=N/O)Nc3ccc(F)c(Cl)c3)c2[nH]1)CC1CC1 [Example 186, N-(3-Chloro-4-fluorophenyl)-2-(2-((cyclopropylmethyl)(methyl)amino)ethyl)-N′-hydroxy-1H-imidazo[4,5-b]pyridine-7-carboximidamide] | 6.25 |
| O/N=C(\Nc1ccc(F)c(Cl)c1)c1cc(F)c(F)c2[nH]c(CNCC3CC3)nc12 [Example 49, N-(3-Chloro-4-fluorophenyl)-2-(((cyclopropylmethyl)amino)methyl)-4,5-difluoro-N′-hydroxy-1H-benzo[d]imidazole-7-carboximidamide] | 5.98 |
| COCCCNCc1nc2c(F)c(F)cc(/C(=N/O)Nc3cccc(Cl)c3)c2[nH]1 [Example 24, N-(3-Chlorophenyl)-4,5-difluoro-N′-hydroxy-2-(((3-methoxypropyl)amino)methyl)-1H-benzo[d]imidazole-7-carboximidamide] | 5.72 |
| Cc1ccc(/C(=N/O)Nc2ccc(F)c(Cl)c2)c2[nH]cnc12 [Example 1, N-(3-Chloro-4-fluorophenyl)-N′-hydroxy-4-methyl-1H-benzo[d]imidazole-7-carboximidamide] | 5.91 |
| OCc1nc2nccc(/C(=N/O)Nc3ccc(F)c(Cl)c3)c2[nH]1 [Example 177, N-(3-Chloro-4-fluorophenyl)-N′-hydroxy-2-(hydroxymethyl)-1H-imidazo[4,5-b]pyridine-7-carboximidamide] | 5.78 |
| COc1cccc(N/C(=N\O)c2ccnc3nc[nH]c23)c1 [Example 92, N′-Hydroxy-N-(3-methoxyphenyl)-1H-imidazo[4,5-b]pyridine-7-carboximidamide] | 5.41 |
| O/N=C(\Nc1ccc(F)c(Cl)c1)c1cc(F)c(F)c2nc(NCCCNc3ccccn3)[nH]c12 [Example 297, N-(3-chloro-4-fluorophenyl)-4,5-difluoro-N′-hydroxy-2-((3-(pyridin-2-ylamino)propyl)amino)-1H-benzo[d]imidazole-7-carboximidamide] | 5.94 |
| O/N=C(\Nc1ccc(F)c(Cl)c1)c1ccnc2nc(CCN3CCCC3)[nH]c12 [Example 193, N-(3-Chloro-4-fluorophenyl)-N′-hydroxy-2-(2-(pyrrolidin-1-yl)ethyl)-1H-imidazo[4,5-b]pyridine-7-carboximidamide] | 6.45 |
| CNCCc1nc2c(/C(=N/O)Nc3ccc(F)c(Cl)c3)cc(F)c(F)c2[nH]1 [Example 57, N-(3-Chloro-4-fluorophenyl)-6,7-difluoro-N′-hydroxy-2-(2-(methylamino)ethyl)-1H-benzo[d]imidazole-4-carboximidamide] | 5.96 |
| O/N=C(\Nc1ccccc1)c1ccnc2nc[nH]c12 [Example 100, N′-hydroxy-N-phenyl-1H-imidazo[4,5-b]pyridine-7-carboximidamide] | 6.11 |
| O/N=C(\Nc1ccc(F)c(Cl)c1)c1ccc(OC(F)(F)F)c2nc[nH]c12 [Example 2, N-(3-Chloro-4-fluorophenyl)-N′-hydroxy-4-(trifluoromethoxy)-1H-benzo[d]imidazole-7-carboximidamide] | 5.61 |
| Nc1nc2c(F)c(F)cc(/C(=N/O)Nc3cccc(Cl)c3)c2[nH]1 [Example 16, 2-Amino-N-(3-chlorophenyl)-4,5-difluoro-N′-hydroxy-1H-benzo[d]imidazole-7-carboximidamide] | 6.22 |
| CN(C)CCc1nc2nccc(/C(=N/O)Nc3cccc(Cl)c3)c2[nH]1 [Example 264, N-(3-chlorophenyl)-2-(2-(dimethylamino)ethyl),N′-hydroxy-1H-imidazo[4,5-b]pyridine-7-carboximidamide] | 6.14 |
| O/N=C(\Nc1ccc(F)c(Cl)c1)c1ccnc2nc(NCCc3ccccc3)[nH]c12 [Example 156, N-(3-Chloro-4-fluorophenyl)-N′-hydroxy-2-(phenethylamino)-1H-imidazo[4,5-b]pyridine-7-carboximidamide] | 6.11 |
| O/N=C(\Nc1ccc(F)c(Cl)c1)c1ccnc2nc(-c3cccnc3)[nH]c12 [Example 147, N-(3-Chloro-4-fluorophenyl)-N′-hydroxy-2-(pyridin-3-yl)-1H-imidazo[4,5-b]pyridine-7-carboximidamide] | 5.71 |
| O/N=C(\Nc1ccc(F)c(Cl)c1)c1ccnc2nc(CNc3ccccc3)[nH]c12 [Example 128, N-(3-Chloro-4-fluorophenyl)-N′-hydroxy-2-((phenylamino)methyl)-1H-imidazo[4,5-b]pyridine-7-carboximidamide] | 5.62 |
| O/N=C(\Nc1ccc(F)c(Cl)c1)c1ccnc2nc(NCC(F)F)[nH]c12 [Example 225, N-(3-chloro-4-fluorophenyl)-2-((2,2-difluoroethyl)amino)-N′-hydroxy-1H-imidazo[4,5-b]pyridine-7-carboximidamide] | 5.66 |
| NCc1nc2c(F)ccc(/C(=N/O)Nc3ccc(F)c(Cl)c3)c2[nH]1 [Example 291, 2-(aminomethyl)-N-(3-chloro-4-fluorophenyl)-4-fluoro-N′-hydroxy-1H-benzo[d]imidazole-7-carboximidamide] | 5.58 |
| OCCCNCc1nc2nccc(/C(=N/O)Nc3ccc(F)c(Cl)c3)c2[nH]1 [Example 138, N-(3-Chloro-4-fluorophenyl)-N′-hydroxy-2-(((3-hydroxypropyl)amino)methyl)-1H-imidazo[4,5-b]pyridine-7-carboximidamide] | 5.08 |
| OCc1nc2c(/C(=N/O)Nc3ccc(F)c(C(F)(F)F)c3)ccnc2[nH]1 [Example 171, N-(4-Fluoro-3-(trifluoromethyl)phenyl)-N′-hydroxy-2-(hydroxymethyl)-3H-imidazo[4,5-b]pyridine-7-carboximidamide] | 5.40 |
| CC(O)c1nc2nccc(/C(=N/O)Nc3ccc(F)c(Cl)c3)c2[nH]1 (stereo not drawn) [Example 172, N-(3-Chloro-4-fluorophenyl)-N′-hydroxy-2-(1-hydroxyethyl)-1H-imidazo[4,5-b]pyridine-7-carboximidamide] | 5.41 |

Same assay, conditions: HeLa cells, IFNγ-induced IDO1, kynurenine in supernatant, 48 hour incubation; geometric mean of a minimum of four determinations

| Compound | pEC50 |
| --- | --- |
| O/N=C(\Nc1ccc(F)c(Cl)c1)c1cc(F)c(F)c2nc(N[C@@H]3CNC[C@@H]3O)[nH]c12 [Example 468, N-(3-chloro-4-fluorophenyl)-4,5-difluoro-N′-hydroxy-2-(((3R,4S)-4-hydroxypyrrolidin-3-yl)amino)-1H-benzo[d]imidazole-7-carboximidamide] | < 5.00 |
| O/N=C(\Nc1ccc(F)c(Cl)c1)c1cc(F)c(F)c2nc(NCc3ncccn3)[nH]c12 [Example 350, N-(3-chloro-4-fluorophenyl)-4,5-difluoro-N′-hydroxy-2-((pyrimidin-2-ylmethyl)amino)-1H-benzo[d]imidazole-7-carboximidamide] | 5.15 |
| CCN(CC)[C@@H]1COC[C@H]1Nc1nc2c(F)c(F)cc(/C(=N/O)Nc3ccc(F)c(Cl)c3)c2[nH]1 [Example 476, N-(3-chloro-4-fluorophenyl)-2-(((3S,4S)-4-(diethylamino)tetrahydrofuran-3-yl)amino)-4,5-difluoro-N′-hydroxy-1H-benzo[d]imidazole-7-carboximidamide] | 6.33 |
| CC1CN(C(C)CNc2nc3nccc(/C(=N/O)Nc4ccc(F)c(Cl)c4)c3[nH]2)CC(C)O1 (stereo not drawn) [Example 483, N-(3-chloro-4-fluorophenyl)-2-((2-(2,6-dimethylmorpholino)propyl)amino)-N′-hydroxy-1H-imidazo[4,5-b]pyridine-7-carboximidamide] | 6.18 |
| CN(C)C(CNc1nc2c(F)c(F)cc(/C(=N/O)Nc3ccc(F)c(Cl)c3)c2[nH]1)c1ccccc1 (stereo not drawn) [Example 436, N-(3-chloro-4-fluorophenyl)-2-((2-(dimethylamino)-2-phenylethyl)amino)-4,5-difluoro-N′-hydroxy-1H-benzo[d]imidazole-7-carboximidamide] | 5.70 |
| O/N=C(\Nc1cccc(Br)c1)c1cc(F)c(F)c2nc(NCCN3CCCC3)[nH]c12 [Example 331, N-(3-bromophenyl)-4,5-difluoro-N′-hydroxy-2-((2-(pyrrolidin-1-yl)ethyl)amino)-1H-benzo[d]imidazole-7-carboximidamide] | 6.16 |
| Cn1ccnc1CNc1nc2c(F)c(F)cc(/C(=N/O)Nc3ccc(F)c(Cl)c3)c2[nH]1 [Example 349, N-(3-chloro-4-fluorophenyl)-4,5-difluoro-N′-hydroxy-2-(((1-methyl-1H-imidazol-2-yl)methyl)amino)-1H-benzo[d]imidazole-7-carboximidamide] | 5.59 |
| CN(C)C(=O)CNc1nc2c(F)c(F)cc(/C(=N/O)Nc3ccc(F)c(Cl)c3)c2[nH]1 [Example 301, 2-((7-(N-(3-chloro-4-fluorophenyl)-N′-hydroxycarbamimidoyl)-4,5-difluoro-1H-benzo[d]imidazol-2-yl)amino)-N,N-dimethylacetamide] | 5.40 |
| ON=C(Nc1ccc(F)c(Cl)c1)c1cc(F)c(F)c2nc(NCc3ncc[nH]3)[nH]c12 [Example 345, 2-(((1H-imidazol-2-yl)methyl)amino)-N-(3-chloro-4-fluorophenyl)-4,5-difluoro-N′-hydroxy-1H-benzo[d]imidazole-7-carboximidamide] | 5.42 |
| CC(Cc1nc2nccc(/C(=N/O)Nc3ccc(F)c(Cl)c3)c2[nH]1)N(C)C (stereo not drawn) [Example 328, N-(3-chloro-4-fluorophenyl)-2-(2-(dimethylamino)propyl)-N′-hydroxy-1H-imidazo[4,5-b]pyridine-7-carboximidamide] | 5.49 |
